Measurements published in PubChem BioAssay (NCI).
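At the GI50, growth is halved. TGI denotes the concentration required for complete inhibition of growth.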

Assays:
Assay in all cases: growth of human tumour cells (NCI), 384-well format
786-0 renal = tested on: 786-0 renal
A498 renal = tested on: A498 renal
A549 NSCLC = tested on: A549 NSCLC
ACHN renal = tested on: ACHN renal
BT-549 breast = tested on: BT-549 breast
CAKI-1 renal = tested on: CAKI-1 renal
CCRF-CEM leukemia = tested on: CCRF-CEM leukemia
COLO 205 colon = tested on: COLO 205 colon
DU-145 prostate = tested on: DU-145 prostate
EKVX NSCLC = tested on: EKVX NSCLC
HCC-2998 colon = tested on: HCC-2998 colon
HCT-116 colon = tested on: HCT-116 colon
HCT-15 colon = tested on: HCT-15 colon
HL-60(TB) leukemia = tested on: HL-60(TB) leukemia
HOP-62 NSCLC = tested on: HOP-62 NSCLC
HOP-92 NSCLC = tested on: HOP-92 NSCLC
HS 578T breast = tested on: HS 578T breast
HT29 colon = tested on: HT29 colon
IGROV1 ovarian = tested on: IGROV1 ovarian
K-562 leukemia = tested on: K-562 leukemia
KM12 colon = tested on: KM12 colon
LOX IMVI melanoma = tested on: LOX IMVI melanoma
M14 melanoma = tested on: M14 melanoma
MALME-3M melanoma = tested on: MALME-3M melanoma
MCF7 breast = tested on: MCF7 breast
MDA-MB-231 breast = tested on: MDA-MB-231 breast
MDA-MB-435 melanoma = tested on: MDA-MB-435 melanoma
MDA-MB-468 breast = tested on: MDA-MB-468 breast
MOLT-4 leukemia = tested on: MOLT-4 leukemia
NCI-H226 lung = tested on: NCI-H226 lung
NCI-H23 lung = tested on: NCI-H23 lung
NCI-H322M lung = tested on: NCI-H322M lung
NCI-H460 NSCLC = tested on: NCI-H460 NSCLC
NCI-H522 lung = tested on: NCI-H522 lung
NCI/ADR-RES ovarian = tested on: NCI/ADR-RES ovarian
OVCAR-3 ovarian = tested on: OVCAR-3 ovarian
OVCAR-4 ovarian = tested on: OVCAR-4 ovarian
OVCAR-8 ovarian = tested on: OVCAR-8 ovarian
PC-3 prostate = tested on: PC-3 prostate
RPMI-8226 leukemia = tested on: RPMI-8226 leukemia
RXF 393 renal = tested on: RXF 393 renal
SF-268 CNS = tested on: SF-268 CNS
SF-295 CNS = tested on: SF-295 CNS
SF-539 CNS = tested on: SF-539 CNS
SK-MEL-28 melanoma = tested on: SK-MEL-28 melanoma
SK-MEL-5 melanoma = tested on: SK-MEL-5 melanoma
SK-OV-3 ovarian = tested on: SK-OV-3 ovarian
SN12C renal = tested on: SN12C renal
SNB-19 CNS = tested on: SNB-19 CNS
SNB-75 CNS = tested on: SNB-75 CNS
SR leukemia = tested on: SR leukemia
SW-620 colon = tested on: SW-620 colon
T-47D breast = tested on: T-47D breast
TK-10 renal = tested on: TK-10 renal
U251 glioblastoma = tested on: U251 glioblastoma
UACC-257 melanoma = tested on: UACC-257 melanoma
UACC-62 melanoma = tested on: UACC-62 melanoma
UO-31 renal = tested on: UO-31 renal

SMILES: CC/C(=C(/c1ccc(/C=C/C(=O)O)cc1)c1ccc2[nH]ncc2c1)c1ccc(F)cc1Cl
- GI50 ([…]-0 renal): 12.7 µM
- TGI (786-0 renal): 25.9 µM
- GI50 (A498 renal): 10.9 µM
- TGI (A498 renal): 22.9 µM
- GI50 (A549 NSCLC): 10.4 µM
- TGI (A549 NSCLC): 22.3 µM
- GI50 (ACHN renal): 13.7 µM
- TGI (ACHN renal): 26.6 µM
- GI50 (BT-549 breast): 14.7 µM
- TGI (BT-549 breast): 27.9 µM
- GI50 (CAKI-1 renal): 16.6 µM
- TGI (CAKI-1 renal): 30.4 µM
- GI50 (CCRF-CEM leukemia): 10.5 µM
- TGI (CCRF-CEM leukemia): 22.3 µM
- GI50 (COLO 205 colon): 15.1 µM
- TGI (COLO 205 colon): 28.7 µM
- GI50 (DU-145 prostate): 15.9 µM
- TGI (DU-145 prostate): 29.4 µM
- GI50 (EKVX NSCLC): 14.7 µM
- TGI (EKVX NSCLC): 28.2 µM
- GI50 (HCC-2998 colon): 18.3 µM
- TGI (HCC-2998 colon): 32.3 µM
- GI50 (HCT-116 colon): 15.3 µM
- TGI (HCT-116 colon): 29.4 µM
- GI50 (HCT-15 colon): 12.4 µM
- TGI (HCT-15 colon): 25.2 µM
- GI50 (HL-60(TB) leukemia): 6.03 µM
- TGI (HL-60(TB) leukemia): 18.5 µM
- GI50 (HOP-62 NSCLC): 9.36 µM
- TGI (HOP-62 NSCLC): 21.4 µM
- GI50 (HOP-92 NSCLC): 14.2 µM
- TGI (HOP-92 NSCLC): 27.6 µM
- GI50 (HS 578T breast): 15.6 µM
- TGI (HS 578T breast): 29 µM
- GI50 (HT29 colon): 16.7 µM
- TGI (HT29 colon): 30.5 µM
- GI50 (IGROV1 ovarian): 15.2 µM
- TGI (IGROV1 ovarian): 29 µM
- GI50 (K-562 leukemia): 14.5 µM
- TGI (K-562 leukemia): 29.5 µM
- GI50 (KM12 colon): 14.4 µM
- TGI (KM12 colon): 27.5 µM
- GI50 (LOX IMVI melanoma): 10.5 µM
- TGI (LOX IMVI melanoma): 22.4 µM
- GI50 (M14 melanoma): 7.57 µM
- TGI (M14 melanoma): 20.5 µM
- GI50 (MALME-3M melanoma): 14.8 µM
- TGI (MALME-3M melanoma): 28 µM
- TGI (MCF7 breast): 15.1 µM
- GI50 (MDA-MB-231 breast): 15.1 µM
- TGI (MDA-MB-231 breast): 28.4 µM
- GI50 (MDA-MB-435 melanoma): 2.71 µM
- TGI (MDA-MB-435 melanoma): 7.22 µM
- GI50 (MDA-MB-468 breast): 11.5 µM
- TGI (MDA-MB-468 breast): 23.8 µM
- GI50 (MOLT-4 leukemia): 12.9 µM
- TGI (MOLT-4 leukemia): 25.9 µM
- GI50 (NCI-H226 lung): 18.1 µM
- TGI (NCI-H226 lung): 32.1 µM
- GI50 (NCI-H23 lung): 14.7 µM
- TGI (NCI-H23 lung): 27.9 µM
- GI50 (NCI-H322M lung): 14.2 µM
- TGI (NCI-H322M lung): 27.4 µM
- GI50 (NCI-H460 NSCLC): 16.6 µM
- TGI (NCI-H460 NSCLC): 30.5 µM
- GI50 (NCI-H522 lung): 14.6 µM
- TGI (NCI-H522 lung): 27.8 µM
- GI50 (NCI/ADR-RES ovarian): 14.1 µM
- TGI (NCI/ADR-RES ovarian): 27.7 µM
- GI50 (OVCAR-3 ovarian): 14.3 µM
- TGI (OVCAR-3 ovarian): 27.6 µM
- GI50 (OVCAR-4 ovarian): 14.2 µM
- TGI (OVCAR-4 ovarian): 28 µM
- GI50 (OVCAR-8 ovarian): 15.3 µM
- TGI (OVCAR-8 ovarian): 28.7 µM
- GI50 (PC-3 prostate): 13.7 µM
- TGI (PC-3 prostate): 26.7 µM
- GI50 (RPMI-8226 leukemia): 5.4 µM
- TGI (RPMI-8226 leukemia): 16.9 µM
- GI50 (RXF 393 renal): 8.35 µM
- TGI (RXF 393 renal): 21 µM
- GI50 (SF-268 CNS): 15.6 µM
- TGI (SF-268 CNS): 29 µM
- GI50 (SF-295 CNS): 4.65 µM
- TGI (SF-295 CNS): 17 µM
- GI50 (SF-539 CNS): 14.3 µM
- TGI (SF-539 CNS): 27.4 µM
- GI50 (SK-MEL-28 melanoma): 12.5 µM
- TGI (SK-MEL-28 melanoma): 26.1 µM
- GI50 (SK-MEL-5 melanoma): 12.6 µM
- TGI (SK-MEL-5 melanoma): 25.2 µM
- GI50 (SK-OV-3 ovarian): 18 µM
- TGI (SK-OV-3 ovarian): 32.5 µM
- GI50 (SN12C renal): 17.1 µM
- TGI (SN12C renal): 31.6 µM
- GI50 (SNB-19 CNS): 14.4 µM
- TGI (SNB-19 CNS): 27.5 µM
- GI50 (SNB-75 CNS): 13.7 µM
- TGI (SNB-75 CNS): 26.6 µM
- GI50 (SR leukemia): 3 µM
- TGI (SR leukemia): 6.35 µM
- GI50 (SW-620 colon): 18.1 µM
- TGI (SW-620 colon): 32.2 µM
- GI50 (T-47D breast): 11.9 µM
- TGI (T-47D breast): 25.2 µM
- GI50 (TK-10 renal): 16.3 µM
- TGI (TK-10 renal): 31.2 µM
- GI50 (U251 glioblastoma): 11.8 µM
- TGI (U251 glioblastoma): 24.2 µM
- GI50 (UACC-257 melanoma): 15.1 µM
- TGI (UACC-257 melanoma): 29 µM
- GI50 (UACC-62 melanoma): 13 µM
- TGI (UACC-62 melanoma): 25.8 µM
- GI50 (UO-31 renal): 10.1 µM
- TGI (UO-31 renal): 21.8 µM
